Key:
[1] = Excerpt: Subjects with a history of HIV-2, hepatitis B and/or C, cirrhosis of the liver or any known active or chronic active liver disease were excluded from the study.
Most AEs were mild or moderate (Grade 1 or Grade 2). […] None of the Grade ≥3 AEs (preferred terms) were reported in more than 1 subject.

[2] = Study 202: treatment-emergent laboratory abnormalities (DAIDS grades; CPK, ALT, AST, bilirubin); type: in vivo; conditions: All CVC (N = 115), EFV (N = 28)
Excerpt: The number of subjects with graded treatment-emergent laboratory abnormalities in selected liver parameters of interest is shown in Table 34. No Grade 4 ALT or AST elevations were observed. Except for one Grade 3 AST elevation, all ALT and AST elevations were Grade 1 or Grade 2. […] All abnormalities in bilirubin were Grade 1 or Grade 2. […]

O=C1Nc2ccc(Cl)cc2[C@@](C#CC2CC2)(C(F)(F)F)O1 [EFV, efavirenz, reference compound]
3: AE Depression, n subjects ([1]; human, in vivo, 48 weeks) | AE Diarrhoea, n subjects ([1]; human, in vivo, 48 weeks) | AE Syphilis, n subjects ([1]; human, in vivo, 48 weeks) | AE leading to discontinuation: Insomnia, n subjects ([1]; human, in vivo, 48 weeks) | AE leading to discontinuation: Psychiatric disorders, n subjects ([1]; human, in vivo, 48 weeks) | Any Grade 3 AE, n subjects ([1]; human, in vivo, 48 weeks) | Laboratory abnormality, worst Grade 3 (Any Grade 3 abnormality), n subjects [2] | AST, worst Grade 1, n subjects ([2]; through Week 48) | Aspartate aminotransferase (AST) abnormality, any grade, n subjects ([2]; through Week 48)
13: Laboratory abnormality, worst Grade 1, n subjects [2]
0: Grade 3 or 4 AE: Blood creatine phosphokinase increased, n subjects ([1]; human, in vivo, 48 week) | Grade 3 or 4 AE: Cardiac disorders, n subjects ([1]; human, in vivo, 48 week) | Grade 3 or 4 AE: Palpitations, n subjects ([1]; human, in vivo, 48 week) | Grade 3 or 4 AE: Stress, n subjects ([1]; human, in vivo, 48 week) | AE Headache, n subjects ([1]; human, in vivo, 48 weeks) | AE leading to discontinuation: Aggression, n subjects ([1]; human, in vivo, 48 weeks) | AE leading to discontinuation: General disorders and administration site conditions, n subjects ([1]; human, in vivo, 48 weeks) | AE leading to discontinuation: Malaise, n subjects ([1]; human, in vivo, 48 weeks) | AE leading to discontinuation: Thinking abnormal, n subjects ([1]; human, in vivo, 48 weeks) | Grade 3 or 4 AE: Abdominal pain, n subjects ([1]; human, in vivo, 48 weeks) | Grade 3 or 4 AE: Blindness unilateral, n subjects ([1]; human, in vivo, 48 weeks) | Grade 3 or 4 AE: Corneal infection, n subjects ([1]; human, in vivo, 48 weeks) | Grade 3 or 4 AE: Eye disorders, n subjects ([1]; human, in vivo, 48 weeks) | Grade 3 or 4 AE: Gastrointestinal disorders, n subjects ([1]; human, in vivo, 48 weeks) | Grade 3 or 4 AE: General disorders and administration site conditions, n subjects ([1]; human, in vivo, 48 weeks) | Grade 3 or 4 AE: Infections and infestations, n subjects ([1]; human, in vivo, 48 weeks) | Grade 3 or 4 AE: Pyrexia, n subjects ([1]; human, in vivo, 48 weeks) | SAE: Blindness unilateral, n subjects ([1]; human, in vivo, 48 weeks) | SAE: Corneal infection, n subjects ([1]; human, in vivo, 48 weeks) | SAE: Eye disorders, n subjects ([1]; human, in vivo, 48 weeks) | SAE: Gastroenteritis, n subjects ([1]; human, in vivo, 48 weeks) | SAE: Infections and infestations, n subjects ([1]; human, in vivo, 48 weeks) | ALT, worst Grade 2, n subjects ([2]; through Week 48) | ALT, worst Grade 3, n subjects ([2]; through Week 48) | ALT, worst Grade 4, n subjects ([2]; through Week 48) | AST, worst Grade 2, n subjects ([2]; through Week 48) | AST, worst Grade 3, n subjects ([2]; through Week 48) | AST, worst Grade 4, n subjects ([2]; through Week 48) | Aspartate aminotransferase (AST) increased (Grade 3 or 4), n subjects ([2]; through Week 48) | Bilirubin, worst Grade 2, n subjects ([2]; through Week 48) | Bilirubin, worst Grade 3, n subjects ([2]; through Week 48) | Bilirubin, worst Grade 4, n subjects ([2]; through Week 48) | CPK increased, worst Grade 4, n subjects ([2]; through Week 48) | Fibrinogen decreased (Grade 3 or 4), n subjects ([2]; through Week 48) | Fibrinogen decreased, worst Grade 3, n subjects ([2]; through Week 48) | Fibrinogen decreased, worst Grade 4, n subjects ([2]; through Week 48) | Hemoglobin decreased (Grade 3 or 4), n subjects ([2]; through Week 48) | Hemoglobin decreased, worst Grade 3, n subjects ([2]; through Week 48) | Hemoglobin decreased, worst Grade 4, n subjects ([2]; through Week 48) | Neutrophils decreased, worst Grade 3, n subjects ([2]; through Week 48) | Phosphate decreased, worst Grade 4, n subjects ([2]; through Week 48) | Prothrombin time/INR increased, worst Grade 3, n subjects ([2]; through Week 48) | Prothrombin time/INR increased, worst Grade 4, n subjects ([2]; through Week 48) | Prothrombin time/international normalized ratio increased (Grade 3 or 4), n subjects ([2]; through Week 48)
8: AE Dizziness, n subjects ([1]; human, in vivo, 48 weeks) | Laboratory abnormality, worst Grade 2, n subjects [2]
2: AE Upper respiratory tract infection, n subjects ([1]; human, in vivo, 48 weeks) | AE leading to discontinuation: Dizziness, n subjects ([1]; human, in vivo, 48 weeks) | AE leading to discontinuation: Skin and subcutaneous tissue disorders, n subjects ([1]; human, in vivo, 48 weeks) | ALT, worst Grade 1, n subjects ([2]; through Week 48) | Alanine aminotransferase (ALT) abnormality, any grade, n subjects ([2]; through Week 48) | CPK increased, worst Grade 3, n subjects ([2]; through Week 48) | Creatine phosphokinase (CPK) increased (Grade 3 or 4), n subjects ([2]; through Week 48)
4: AE Insomnia, n subjects ([1]; human, in vivo, 48 weeks) | AE Lymphadenopathy, n subjects ([1]; human, in vivo, 48 weeks) | AE leading to discontinuation: Nervous system disorders, n subjects ([1]; human, in vivo, 48 weeks) | Any Grade 3 or Grade 4 laboratory abnormality, n subjects ([2]; through Week 48)
6: AE Abnormal dreams, n subjects ([1]; human, in vivo, 48 weeks) | AE Nausea, n subjects ([1]; human, in vivo, 48 weeks) | Any AE leading to discontinuation of study drug, n subjects ([1]; human, in vivo, 48 weeks)
25: Any graded (Grade 1-4) treatment-emergent laboratory abnormality, n subjects [2]
5: AE Rash, n subjects ([1]; human, in vivo, 48 weeks)
27: Any AE, n subjects ([1]; human, in vivo, 48 weeks)
15%: Subjects who experienced a Grade ≥3 AE ([1]; human, in vivo, 48 weeks)
1: SAE: Suicidal ideation, n subjects ([1]; All CVC (N = 115), EFV (N = 28), through Week 48) | Grade 3 or 4 AE: Suicidal ideation, n subjects ([1]; All CVC (N = 115), EFV (N = 28; Grade 4 event)) | Grade 3 or 4 AE: Depression, n subjects ([1]; human, in vivo, 48 week) | Grade 3 or 4 AE: Ear and labyrinth disorders, n subjects ([1]; human, in vivo, 48 week) | Grade 3 or 4 AE: Investigations, n subjects ([1]; human, in vivo, 48 week) | Grade 3 or 4 AE: Psychiatric disorders, n subjects ([1]; human, in vivo, 48 week) | Grade 3 or 4 AE: Weight decreased, n subjects ([1]; human, in vivo, 48 week) | AE Fatigue, n subjects ([1]; human, in vivo, 48 weeks) | AE Nasopharyngitis, n subjects ([1]; human, in vivo, 48 weeks) | AE leading to discontinuation: Abnormal dreams, n subjects ([1]; human, in vivo, 48 weeks) | AE leading to discontinuation: Anxiety, n subjects ([1]; human, in vivo, 48 weeks) | AE leading to discontinuation: Depression, n subjects ([1]; human, in vivo, 48 weeks) | AE leading to discontinuation: Dermatitis allergic, n subjects ([1]; human, in vivo, 48 weeks) | AE leading to discontinuation: Disturbance in attention, n subjects ([1]; human, in vivo, 48 weeks) | AE leading to discontinuation: Ear and labyrinth disorders, n subjects ([1]; human, in vivo, 48 weeks) | AE leading to discontinuation: Eye disorders, n subjects ([1]; human, in vivo, 48 weeks) | AE leading to discontinuation: Gastrointestinal disorders, n subjects ([1]; human, in vivo, 48 weeks) | AE leading to discontinuation: Hypoaesthesia, n subjects ([1]; human, in vivo, 48 weeks) | AE leading to discontinuation: Musculoskeletal and connective tissue disorders, n subjects ([1]; human, in vivo, 48 weeks) | AE leading to discontinuation: Musculoskeletal discomfort, n subjects ([1]; human, in vivo, 48 weeks) | AE leading to discontinuation: Nausea, n subjects ([1]; human, in vivo, 48 weeks) | AE leading to discontinuation: Photophobia, n subjects ([1]; human, in vivo, 48 weeks) | AE leading to discontinuation: Rash, n subjects ([1]; human, in vivo, 48 weeks) | AE leading to discontinuation: Tachyphrenia, n subjects ([1]; human, in vivo, 48 weeks) | AE leading to discontinuation: Tinnitus, n subjects ([1]; human, in vivo, 48 weeks) | Any Grade 4 AE, n subjects ([1]; human, in vivo, 48 weeks) | Any SAE, n subjects ([1]; human, in vivo, 48 weeks) | Grade 3 or 4 AE: Dermatitis allergic, n subjects ([1]; human, in vivo, 48 weeks) | Grade 3 or 4 AE: Skin and subcutaneous tissue disorders, n subjects ([1]; human, in vivo, 48 weeks) | Grade 3 or 4 AE: Tinnitus, n subjects ([1]; human, in vivo, 48 weeks) | SAE: Depression, n subjects ([1]; human, in vivo, 48 weeks) | SAE: Psychiatric disorders, n subjects ([1]; human, in vivo, 48 weeks) | Laboratory abnormality, worst Grade 4 (Any Grade 4 abnormality), n subjects [2] | Bilirubin abnormality, any grade, n subjects ([2]; through Week 48) | Bilirubin, worst Grade 1, n subjects ([2]; through Week 48) | Neutrophils decreased (Grade 3 or 4), n subjects ([2]; through Week 48) | Neutrophils decreased, worst Grade 4, n subjects ([2]; through Week 48) | Phosphate decreased (Grade 3 or 4), n subjects ([2]; through Week 48) | Phosphate decreased, worst Grade 3, n subjects ([2]; through Week 48)
0 n: Deaths ([1]; EFV (N = 28))

— patent US20180110754A1, “CENICRIVIROC FOR THE TREATMENT OF FIBROSIS” (Tobira Therapeutics, Inc., priority 2015, published 2018)
